# Measured values as given in US10188605B2, “Nanoparticles and nanoparticle compositions” (priority 2010, dated 2019).
# “And” between values parts separate entries of the source, which are not always exact repeats. Equal entries are not always repeated.
# Key:
# [1] = versus camptothecin; cited from earlier work
# [2] = in water at 20° C.; cited from earlier work
# [3] = Critical micelle concentration of surfactant 1 (surface tension; pyrene I3/I1 fluorescence); format: physicochemical
# Description: Pyrene was used as a surrogate for a hydrophobic drug because of its environmentally sensitive fluorescence. […] The intensity ratio between the third (˜384 nm) and the first band (˜372 nm), in particular, is sensitive to changes in the environment. […] The CMC of the surfactant is about 1.4×10^−4 M according to surface tension measurement and 1.5×10^−4 M, according to FIG. 15.
# [4] = Release of entrapped pyrene from SCMs by fluorescence (I3/I1 ratio); format: physicochemical; details: uncrosslinked reference
# Description: The intensity ratio between the third (˜384 nm) and the first band (˜372 nm), in particular, is sensitive to changes in the environment.
smiles,measurement,setting,value
CC[C@@](O)(C(=O)[O-])c1cc2n(c(=O)c1CO)Cc1cc3ccccc3nc1-2.[Na+] [CAM-Na],biological activity relative to the parent drug,[1],one-tenth
CCCCCCCCCCCC[N+](C)(C)C.[Br-] [Dodecyltrimethyl ammonium bromide],micellar aggregation number,[2],55
"C#CC[N+](CC#C)(CC#C)Cc1ccc(OCCCCCCCCCCCC)cc1.[Br-] [Compound 1, 4-(Dodecyloxy)benzyltripropargylammonium bromide]",critical micelle concentration,[3]; in water,150 µM and 140 µM
same,CMC according to pyrene I3/I1 ratio (FIG. 15),[3]; pyrene fluorescence,150 µM
same,CMC according to surface tension measurement,[3]; surface tension,about 1.4×10^−4 M
same,pyrene I3/I1 in uncrosslinked surfactant below the CMC,[4],0.70
